Results reported in article PMC6497555 (Molecular cancer therapeutics, 2019).

Test system: HeyA8 tumor model
Assay: HeyA8 intraperitoneal ovarian cancer mouse model
Assay type: in vivo
Conditions: all four groups compared; EP-100 0.2 mg/kg, olaparib 50 mg/kg

O=C(c1cc(Cc2n[nH]c(=O)c3ccccc23)ccc1F)N1CCN(C(=O)C2CC2)CC1 [olaparib]
Body weights of the host mice at the end of the experiment: did not differ significantly
